Test results from patent publication US4533670A, “Anti-convulsant fluorenylalkylimidazole derivatives, compositions, and method of use” (Eli Lilly and Company, priority 1983, dated 1985).
Where a name gives a salt, the structure may show the parent alone.

tested on: seizures; assay: not given; details: man; cited from earlier work

Structure (SMILES)	plasma level at which seizures are controlled [µg/mL]
O=C1NC(=O)C(c2ccccc2)(c2ccccc2)N1 [phenytoin]	≥ 10

tested on: extensor tonic convulsions; assay: Electroshock induced convulsion inhibition assay; format: in vivo, Cox standard strain albino male mice; details: Mus musculus, po, 1 h; p.o. (gavage), mice; 60 minutes after administration (optimal time); 0.1 second, 50 milliampere corneal electroshock; read-out: ED50 (dose which inhibited extensor tonic convulsions in one half of the animals)
Description: The compounds of Formula II are anticonvulsant agents with a high therapeutic ratio and long half-life and are therefore useful in the treatment and/or prevention of convulsions in mammals. In particular, the compounds are effective against tonic extensor seizures elicited by maximal electroshock and should therefore be useful for treating generalized tonic-clonic ("grand mal"), cortical focal, complex partial (temporal lobe epilepsy), simple partial (focal motor), and post-traumaticseizures in humans. […] In the electroshock induced convulsion inhibition assay, the compound to be tested was dissolved in water (5%--sufficient hydrochloric acid was added for those compounds which were not isolated as a salt in order to effect dissolution) and administered by gavage to each of three Cox standard strain albino male mice (18-24 g.) at the dose level being investigated. Sixty to 240 minutes after compound administration, the mice were subjected to a 0.1 second, 50 milliampere electroshock through corneal electrodes. The animals were examined and evaluated immediately after the electroshock for the occurrence of clonic, flexor tonic, or extensor tonic convulsions, or death and the ED50 was determined for each compound (for the particular time after administration of the compound) as the dose which inhibited the occurrence of extensor tonic convulsions in one half of the animals immediately after the electroshock. For comparison, 18 milliamperes was usually sufficient to produce extensor tonic convulsions in about half of the control animals; at 50 milliamperes, almost all control animals (receiving vehicle only) died. The test results are summarized in Table I as the ED50 's at the optimal time after compound administration.

Structure (SMILES)	ED50 [mg/kg]
CC1(C)c2ccccc2-c2ccc(C(=O)Cn3ccnc3)cc21.Cl [Example 6, 1-(9,9-Dimethyl-9H-fluoren-2-yl)-2-(1H-imidazol-1-yl)ethanone hydrochloride]	48
CCSC(Cn1ccnc1)c1ccc2c(c1)Cc1ccccc1-2.Cl (stereo not shown) [Example 17, 1-[2-(Ethylthio)-2-(9H-fluoren-2-yl)ethyl]-1H-imidazole hydrochloride]	44
CCC(C(=O)c1ccc2c(c1)Cc1ccccc1-2)n1ccnc1.Cl (stereo not shown) [Example 13, 2-(1H-imidazol-1-yl)-1-(9H-fluoren-2-yl)-1-butanone hydrochloride]	50
OC(CCn1ccnc1)c1ccc2c(c1)Cc1ccccc1-2 (stereo not shown) [Example 15, 1-(9H-fluoren-2-yl)-3-(1H-imidazol-1-yl)-1-propanol]	33
Cl.c1ccc2c(c1)Cc1cc(C3(Cn4ccnc4)OCCCO3)ccc1-2 [Example 21, 1-([2-(9H-fluoren-2-yl)-1,3-dioxan-2-yl]methyl)-1H-imidazole hydrochloride]	32
O=C(OC(Cn1ccnc1)c1ccc2c(c1)Cc1ccccc1-2)c1ccccc1 (stereo not shown) [Example 16, 1-(9H-fluoren-2-yl)-2-(1H-imidazol-1-yl)-1-ethanol, benzoate ester hydrochloride]	32
Cc1nccn1CC(=O)c1ccc2c(c1)Cc1ccccc1-2.Cl [Example 1, 1-(9H-fluoren-2-yl)-2-(2-methyl-1H-imidazol-1-yl)ethanone hydrochloride]	210
Cl.O=C(Cn1ccnc1)c1cccc2c1-c1ccccc1C2 [Example 10, 1-(9H-fluoren-4-yl)-2-(1H-imidazol-1-yl)ethanone hydrochloride]	44
OC(Cn1ccnc1)c1ccc2c(c1)Cc1ccccc1-2 (stereo not shown) [Example 14, 1-(9H-fluoren-2-yl)-2-(1H-imidazol-1-yl)-1-ethanol]	22
Cl.O=C(CCn1ccnc1)c1ccc2c(c1)Cc1ccccc1-2 [Example 11, 1-(9H-fluoren-2-yl)-3-(1H-imidazol-1-yl)-1-propanone hydrochloride]	19
Cc1cn(CC(=O)c2ccc3c(c2)Cc2ccccc2-3)cn1.Cl [Example 3, 1-(9H-fluoren-2-yl)-2-(4-methyl-1H-imidazol-1-yl)ethanone hydrochloride]	90
c1ccc2c(c1)Cc1cc(C3(CCn4ccnc4)OCCO3)ccc1-2 [Example 22, 1-(2-[2-(9H-fluoren-2-yl)-1,3-dioxolan-2-yl]ethyl)-1H-imidazole]	26

same assay, conditions: Mus musculus, po, 1.5 h; p.o. (gavage), mice; 90 minutes after administration (optimal time); 0.1 second, 50 milliampere corneal electroshock; read-out: ED50 (dose which inhibited extensor tonic convulsions in one half of the animals)

Structure (SMILES)	ED50 [mg/kg]
CC(C(=O)c1ccc2c(c1)Cc1ccccc1-2)n1ccnc1.Cl (stereo not shown) [Example 12, 2-(1H-imidazol-1-yl)-1-(9H-fluoren-2-yl)-1-propanone hydrochloride]	35

same assay, conditions: Mus musculus, po, 2 h; p.o. (gavage), mice; 120 minutes after administration (optimal time); 0.1 second, 50 milliampere corneal electroshock; read-out: ED50 (dose which inhibited extensor tonic convulsions in one half of the animals)

Structure (SMILES)	ED50 [mg/kg]
Cc1ccc2c(c1)Cc1cc(C(=O)Cn3ccnc3)ccc1-2.Cl [Example 7, 2-(1H-imidazol-1-yl)-1-(7-methyl-9H-fluoren-2-yl)ethanone hydrochloride]	68
Cl.O=C(Cn1ccnc1)c1ccc2c(c1)Cc1cc(Br)ccc1-2 [Example 4, 2-(1H-imidazol-1-yl)-1-(7-bromo-9H-fluoren-2-yl)ethanone hydrochloride]	79
Cl.c1ccc2c(c1)Cc1cc(C3(Cn4ccnc4)SCCS3)ccc1-2 [Example 23, 1-([2-(9H-fluoren-2-yl)-1,3-dithiolan-2-yl]methyl)-1H-imidazole hydrochloride]	41
Cl.O=C(Cn1ccnc1)c1cccc2c1Cc1ccccc1-2 [Example 9, 1-(9H-fluoren-1-yl)-2-(1H-imidazol-1-yl)ethanone hydrochloride]	20
CC(O)(Cn1ccnc1)c1ccc2c(c1)Cc1ccccc1-2 (stereo not shown) [Example 24, 1-(1H-imidazol-1-yl)-2-(9H-fluoren-2-yl)-2-propanol]	14
CC1c2ccccc2-c2ccc(C(=O)Cn3ccnc3)cc21.Cl (stereo not shown) [Example 5, 2-(1H-imidazol-1-yl)-1-(9-methyl-9H-fluoren-2-yl)ethanone hydrochloride]	33
CC1COC(Cn2ccnc2)(c2ccc3c(c2)Cc2ccccc2-3)O1 (stereo not shown) [Example 19, 1-([2-(9H-fluoren-2-yl)-4-methyl-1,3-dioxolan-2-yl]methyl)-1H-imidazole]	21
CCc1nccn1CC(=O)c1ccc2c(c1)Cc1ccccc1-2 [Example 2, 2-(2-ethyl-1H-imidazol-1-yl)-1-(9H-fluoren-2-yl)ethanone]	188
CC1(C)COC(Cn2ccnc2)(c2ccc3c(c2)Cc2ccccc2-3)OC1 [Example 20, 1-([2-(9H-fluoren-2-yl)-5,5-dimethyl-1,3-dioxan-2yl]methyl)-1H-imidazole]	65

same assay, conditions: Mus musculus, po, 3 h; p.o. (gavage), mice; 180 minutes after administration (optimal time); 0.1 second, 50 milliampere corneal electroshock; read-out: ED50 (dose which inhibited extensor tonic convulsions in one half of the animals)

Structure (SMILES)	ED50 [mg/kg]
Cl.O=C(Cn1ccnc1)c1ccc2c(c1)Cc1ccccc1-2 [Example 8, 2-(1H-imidazol-1-yl)-1-(9H-fluoren-2-yl)ethanone hydrochloride]	25

same assay, conditions: Mus musculus, po, 4 h; p.o. (gavage), mice; 240 minutes after administration (optimal time); 0.1 second, 50 milliampere corneal electroshock; read-out: ED50 (dose which inhibited extensor tonic convulsions in one half of the animals)

Structure (SMILES)	ED50 [mg/kg]
c1ccc2c(c1)Cc1cc(C3(Cn4ccnc4)OCCO3)ccc1-2 [Example 18, 1-([2-(9H-fluoren-2-yl)-1,3-dioxolan-2-yl]methyl)-1H-imidazole]	23

tested on: not given; assay: not given; details: man, ataxia; cited from earlier work

Structure (SMILES)	plasma level at which ataxia is obvious [ng/mL]
O=C1NC(=O)C(c2ccccc2)(c2ccccc2)N1 [phenytoin]	30000

same assay, conditions: man, lethargy; cited from earlier work

Structure (SMILES)	plasma level at which lethargy is apparent
O=C1NC(=O)C(c2ccccc2)(c2ccccc2)N1 [phenytoin]	about 40 mcg./ml.

same assay, conditions: man, nystagmus; cited from earlier work

Structure (SMILES)	plasma level at which nystagmus is seen
O=C1NC(=O)C(c2ccccc2)(c2ccccc2)N1 [phenytoin]	around 20 mcg./ml.
